Patent US11390609B2, “Rho-associated protein kinase inhibitor, pharmaceutical composition comprising same, and preparation method and use thereof” (BEIJING TIDE PHARMACEUTICAL CO., LTD., priority 2017, dated 2022)

Assays:
ROCK2 = ROCK2 (Homo sapiens, UniProt O75116); assay: ROCK2 kinase IC50 assay (CISBIO HTRF KinEASE-STK S2 kit); type: biochemical; conditions: incubated at room temperature for 2 hours
Method in brief: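 HTRF KinEASE-STK S2 format with recombinant ROCK2 (1.4 ng per well), STK-S2 substrate and ATP from 5× working solutions of 1.5 μM each, run 2 h at room temperature. Nine-point dilutions from 10000 nM top concentration; 665/615 nm emission ratio normalised to no-compound and no-kinase controls, curve-fitted for IC50.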

ROCK1 = ROCK1 (Homo sapiens (Human), UniProt Q13464); assay: ROCK1 kinase IC50 assay (biological test method similar to the ROCK2 assay); type: biochemical
Method in brief: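 Compound dilution series (9 concentrations, top solution 10000 nM, DMSO-containing buffer) incubated 2 h at room temperature with kinase, STK-S2 substrate and ATP (5× working solutions of 1.5 µM each). Phosphorylation detected by HTRF (665/615 nm emission ratio) after 1 h; inhibition relative to full-reaction and kinase-free wells, fitted for IC50.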

Chain of ROCK1 (Q13464 whole entry, species assumed): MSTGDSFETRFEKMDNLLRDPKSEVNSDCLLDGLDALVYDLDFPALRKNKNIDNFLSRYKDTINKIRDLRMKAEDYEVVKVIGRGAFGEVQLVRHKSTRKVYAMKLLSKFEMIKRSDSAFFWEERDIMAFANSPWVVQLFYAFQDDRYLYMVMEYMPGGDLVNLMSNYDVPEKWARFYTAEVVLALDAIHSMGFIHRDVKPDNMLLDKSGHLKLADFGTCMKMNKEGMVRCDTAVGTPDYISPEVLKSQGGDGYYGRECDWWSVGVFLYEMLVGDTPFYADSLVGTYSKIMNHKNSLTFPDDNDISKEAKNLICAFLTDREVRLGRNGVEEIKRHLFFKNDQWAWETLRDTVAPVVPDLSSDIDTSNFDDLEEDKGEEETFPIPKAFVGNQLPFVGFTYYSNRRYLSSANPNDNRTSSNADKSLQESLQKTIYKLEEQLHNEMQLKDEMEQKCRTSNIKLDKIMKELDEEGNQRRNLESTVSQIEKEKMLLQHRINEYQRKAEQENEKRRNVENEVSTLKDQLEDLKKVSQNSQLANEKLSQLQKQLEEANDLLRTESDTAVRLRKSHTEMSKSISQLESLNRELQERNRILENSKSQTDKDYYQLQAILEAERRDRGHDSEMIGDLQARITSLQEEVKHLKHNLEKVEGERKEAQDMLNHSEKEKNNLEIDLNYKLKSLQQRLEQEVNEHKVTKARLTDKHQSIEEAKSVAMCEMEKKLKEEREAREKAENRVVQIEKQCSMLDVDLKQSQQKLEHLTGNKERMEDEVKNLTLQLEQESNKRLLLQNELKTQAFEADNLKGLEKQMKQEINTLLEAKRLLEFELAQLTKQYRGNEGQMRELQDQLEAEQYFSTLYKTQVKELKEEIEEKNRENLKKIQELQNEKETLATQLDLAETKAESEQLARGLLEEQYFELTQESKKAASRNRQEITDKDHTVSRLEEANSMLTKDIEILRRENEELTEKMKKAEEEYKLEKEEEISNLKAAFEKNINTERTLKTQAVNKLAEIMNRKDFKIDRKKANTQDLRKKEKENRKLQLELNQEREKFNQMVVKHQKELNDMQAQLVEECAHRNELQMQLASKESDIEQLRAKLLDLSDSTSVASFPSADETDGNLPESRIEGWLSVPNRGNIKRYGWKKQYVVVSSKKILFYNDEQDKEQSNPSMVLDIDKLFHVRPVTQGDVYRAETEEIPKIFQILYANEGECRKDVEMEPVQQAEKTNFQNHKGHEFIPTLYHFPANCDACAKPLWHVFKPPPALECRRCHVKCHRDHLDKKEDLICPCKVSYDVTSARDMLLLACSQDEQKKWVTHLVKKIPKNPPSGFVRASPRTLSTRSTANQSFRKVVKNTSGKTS

SMILES | IC50 (ROCK2) [nM] | IC50 (ROCK1) [nM]
O=C(C1CC(F)(F)C1)N1Cc2ccc(-c3ncc(F)c(Nc4ccc(-c5cn[nH]c5)cc4F)n3)cc2C1 [TDI01598, (3,3-difluorocyclobutyl)(5-(5-fluoro-4-((2-fluoro-4-(1H-pyrazol-4-yl)phenyl)amino)pyrimidin-2-yl)isoindolin-2-yl)methanone] | 216 | > 10000
O=C(OC1CC(F)(F)C1)N1Cc2ccc(-c3ncc(F)c(Nc4ccc5[nH]ncc5c4)n3)cc2C1 [TDI01613, 3,3-difluorocyclobutyl 5-(4-((1H-indazol-5-yl)amino)-5-fluoropyrimidin-2-yl)isoindoline-2-carboxylate] | 27 | > 10000
O=C(C1CC(F)(F)C1)N1CCc2cc(-c3ncc(F)c(Nc4ccc(-c5cn[nH]c5)cc4)n3)ccc21 [TDI01618A, (5-(4-((4-(1H-pyrazol-4-yl)phenyl)amino)-5-fluoropyrimidin-2-yl)indolin-1-yl)(3,3-difluorocyclobutyl) methanone] | 129 | > 10000
O=C(C1CC(F)(F)C1)N1CCc2cc(-c3nccc(Nc4ccc5[nH]ncc5c4)n3)ccc2C1 [TDI01683, (6-(4-((1H-indazol-5-yl)amino)pyrimidin-2-yl)-3,4-dihydroisoquinolin-2(1H)-yl)(3,3-difluorocyclobutyl)methanone] | 360 | > 10000
COc1cnc(-c2ccc3cc(C(=O)Nc4ccnnc4)[nH]c3c2)nc1Nc1ccc2[nH]ncc2c1 [TDI01813, 6-(4-((1H-indazol-5-yl)amino)-5-methoxy-pyrimidin-2-yl)-N-(pyridazin-4-yl)-1H-indole-2-carboxamide] | 90 | > 10000
c1ccc2oc(-c3cc4ccc(-c5nccc(Nc6ccc7[nH]ncc7c6)n5)cc4[nH]3)nc2c1 [TDI01816, N-(2-(2-(benzo[d]oxazol-2-yl)-1H-indol-6-yl]pyrimidin-4-yl)-1H-indazol-5-amine] | 111 | 6010
c1cc(Nc2ccc(-c3cn[nH]c3)cc2)nc(-c2ccc3cc(-c4nccs4)[nH]c3c2)n1 [TDI01826, N-(4-(1H-pyrazol-4-yl)phenyl)-2-(2-(thiazol-2-yl)-1H-indol-6-yl)pyrimidin-4-amine] | 75 | > 10000
COc1cc(Nc2ccnc(-c3ccc4cc(C(=O)N(C)C)[nH]c4c3)n2)ccc1-c1cn[nH]c1 [TDI01832, 6-(4-((3-methoxy-4-(1H-pyrazol-4-yl)phenyl)ami-no)pyrimidin-2-yl)-N, N-dimethyl-1H-indole-2-carboxamide] | 167 | > 10000
O=C(NC1CCCN(c2ccncc2)C1)c1cc2ccc(-c3nccc(Nc4ccc5[nH]ncc5c4)n3)cc2[nH]1 (stereo not shown) [TDI01840, 6-(4-((1H-indazol-5-yl)amino)-pyrimidin-2-yl)-N-(1-(pyridin-4-yl)piperidin-3-yl)-1H-indole-2-carboxamide] | 5 | 89
Cn1c(C(=O)Nc2ccncc2Cl)cc2ccc(-c3nccc(Nc4ccc5[nH]ncc5c4)n3)cc21 [TDI01841, 6-(4-((1H-indazol-5-yl)amino)-pyrimidin-2-yl)-N-(3-chloropyridin-4-yl)-1-methyl-1H-indole-2-carboxamide] | 11 | 1000
CN(C)C(=O)c1cc2ccc(-c3nccc(Nc4ccc(-c5cn[nH]c5)c(F)c4)n3)cc2[nH]1 [TDI01842, 6-(4-((3-fluoro-4-(1H-pyrazol-4-yl)phenyl)ami-no)pyrimidin-2-yl)-N, N-dimethyl-1H-indole-2-carboxamide] | 120 | 3000
O=C(Nc1ccnnc1)c1cc2ccc(-c3ncc(Cl)c(Nc4ccc5[nH]ncc5c4)n3)cc2[nH]1 [TDI01844, 6-(4-((1H-indazol-5-yl)amino)-5-chloropyrimidin-2-yl)-N-(pyridazin-4-yl)-1H-indole-2-carboxamide] | 370 | > 10000
COc1cnc(-c2ccc3cc(C(=O)N(C)CC(F)(F)F)[nH]c3c2)nc1Nc1ccc(-c2cn[nH]c2)cc1 [TDI01868, 6-(4-((4-(1H-pyrazol-4-yl)phenyl)-amino)-5-methoxy-pyrimidin-2-yl)-N-methyl-N-(2,2,2-trifluoroethyl)-1H-indole-2-carboxamide] | 32 | > 10000
c1cnc(-c2cc3ccc(-c4nccc(Nc5ccc(-c6cn[nH]c6)cc5)n4)cc3[nH]2)nc1 [TDI01870, N-(4-(1H-pyrazol-4-yl)phenyl)-2-(2-(pyrimidin-2-yl)-1H-indol-6-yl)pyrimidin-4-amine] | 46 | > 10000
Cn1c(-n2ccnc2)cc2ccc(-c3nccc(Nc4ccc(-c5cn[nH]c5)cc4)n3)cc21 [TDI01876B, 2-(2-(1H-imidazol-1-yl)-1-methyl-1H-indol-6-yl)-N-(4-(1H-pyrazol-4-yl)phenyl)pyrimidin-4-amine] | 240 | > 10000
c1ccc2sc(-c3cc4ccc(-c5nccc(Nc6ccc7[nH]ncc7c6)n5)cc4[nH]3)nc2c1 [TDI01881, N-(2-(2-(benzo[d]thiazol-2-yl)-1H-indol-6-yl)pyrimidin-4-yl)-1H-indazol-5-amine] | 161 | > 10000

Second part, the compound after the results:

IC50 (ROCK2) [nM] | IC50 (ROCK1) [nM] | SMILES
219 | > 10000 | O=C(OC1CC(F)(F)C1)N1CCc2cc(-c3nccc(Nc4ccc(-c5cn[nH]c5)cc4)n3)ccc2C1 [TDI01621, 3,3-difluorocyclobutyl 6-(4-((4-(1H-pyrazol-4-yl)phenyl)amino)pyrimidin-2-yl)-3,4-dihydroisoquinoline-2(1H)-carboxylate]
28 | > 10000 | CC1(C(=O)N2Cc3ccc(-c4ncc(F)c(Nc5ccc(-c6cn[nH]c6)cc5)n4)cc3C2)CC(F)(F)C1 [TDI01628, (5-(4-((4-(1H-pyrazol-4-yl)phenyl)amino)-5-fluoropyrimidin-2-yl)isoindolin-2-yl)(3,3-difluoro-1-methylcyclobutyl) methanone]
16 | 2040 | O=C(OC1CC2(CNC2)C1)N1Cc2ccc(-c3nccc(Nc4ccc(-c5cn[nH]c5)cc4)n3)cc2C1 [TDI01634, 2-azaspiro[3.3]heptan 6-yl 5-(4-((4-(1H-pyrazol-4-yl)phenyl)amino)pyrimidin-2-yl)isoindoline-2-carboxylate]
442 | > 10000 | O=C(OC1CCC(F)(F)CC1)N1CCc2cc(-c3nccc(Nc4ccc(-c5cn[nH]c5)cc4)n3)ccc2C1 [TDI01656, 4,4-difluorocyclohexyl 6-(4-((4-(1H-pyrazol-4-yl)phenyl)amino)pyrimidin-2-yl)-3,4-dihydroisoquinoline-2(1H)-carboxylate]
42 | > 10000 | COCc1cnc(-c2ccc3cc(C(=O)N4CC(F)(F)C4)n(C)c3c2)nc1Nc1ccc(-c2cn[nH]c2)cc1 [TDI01668, (6-(4-((4-(1H-pyrazol-4-yl)phenyl)amino)-5-(methoxymethyl)pyrimidin-2-yl)-1-methyl-1H-indol-2-yl)(3,3-difluoroazetidin-1-yl)methanone]
84 | > 10000 | O=C(c1cc2ccc(-c3ncc(F)c(Nc4ccc(-c5cn[nH]c5)cc4)n3)cc2s1)N1CC(F)(F)C1 [TDI01675, (6-(4-((4-(1H-pyrazol-4-yl)phenyl)-amino)-5-fluoro-pyrimidin-2-yl)benzo[b]-thiophen-2-yl)(3,3-difluoroazetidin-1-yl)methanone]
242 | > 10000 | CC1(C(=O)N2CCc3ccc(-c4nccc(Nc5ccc(-c6cn[nH]c6)cc5)n4)cc3C2)CC(F)(F)C1 [TDI01676, (7-(4-((4-(1H-pyrazol-4-yl)phenyl)amino)pyrimidin-2-yl)-3,4-dihydroisoquinolin-2(1H)-yl)(3,3-difluoro-1-methylcyclobutyl) methanone]
238 | > 10000 | Cn1c(C(=O)N2CC(F)(F)C2)cc2ccc(-c3ncc(C(F)(F)F)c(Nc4ccc(-c5cn[nH]c5)cc4)n3)cc21 [TDI01681, (6-(4-((4-(1H-pyrazol-4-yl)phenyl)amino)-5-(trifluoromethyl)pyrimidin-2-yl)-1-methyl-1H-indol-2-yl)(3,3-difluoroazetidin-1-yl)methanone]
6 | 159 | CC(NC(=O)c1cc2ccc(-c3nccc(Nc4ccc(-c5cn[nH]c5)cc4)n3)cc2n1C)C(F)(F)F (stereo not shown) [TDI01691]
15 | > 10000 | Cn1c(C(=O)N2CC(F)(F)C2)cc2ccc(-c3nc(Nc4ccc(-c5cn[nH]c5)cc4)c4c(n3)OCCO4)cc21 [TDI01851, (6-(4-((4-(1H-pyrazol-4-yl)phenyl)amino)-6,7-dihydro-[1,4]dioxino[2,3-d]pyrimidin-2-yl)-1-methyl-1H-indol-2-yl)(3,3-difluoroazetidin-1-yl)methanone]
41 | > 10000 | CC(C)NC(=O)N1Cc2ccc(-c3nc(Nc4ccc(-c5cn[nH]c5)cc4)c4occc4n3)cc2C1 [TDI01861, 5-(4-((4-(1H-pyrazol-4-yl)phenyl)amino)furo[3,2-d]pyrimidin-2-yl)-N-isopropylisoindoline-2-carboxamide]
382 | > 10000 | CC(C)NC(=O)c1cc2ccc(-c3nc(Nc4ccc(-c5cn[nH]c5)cc4)c4ccccc4n3)cc2[nH]1 [TDI01862, 6-(4-((4-(1H-pyrazol-4-yl)phenyl)-amino)-quinazolin-2-yl)-N-isopropyl-1H-indole-2-carboxamide]
30 | 3000 | CC(C)NC(=O)c1cc2ccc(-c3nc(Nc4ccc(-c5cn[nH]c5)cc4)c4occc4n3)cc2[nH]1 [TDI01864, 6-(4-((4-(1H-pyrazol-4-yl)phenyl)ami-no)furo[3,2-d]pyrimidin-2-yl)-N-isopropyl-1H-indole-2-carboxamide]
